# In ChEMBL document CHEMBL3739371, “Small molecules enhance functional O-mannosylation of Alpha-dystroglycan” (Bioorg Med Chem, 2015):
# Target: T1, Dystroglycan (Cricetulus griseus) (UniProt G3H8F4)
# T1 sequence (whole entry): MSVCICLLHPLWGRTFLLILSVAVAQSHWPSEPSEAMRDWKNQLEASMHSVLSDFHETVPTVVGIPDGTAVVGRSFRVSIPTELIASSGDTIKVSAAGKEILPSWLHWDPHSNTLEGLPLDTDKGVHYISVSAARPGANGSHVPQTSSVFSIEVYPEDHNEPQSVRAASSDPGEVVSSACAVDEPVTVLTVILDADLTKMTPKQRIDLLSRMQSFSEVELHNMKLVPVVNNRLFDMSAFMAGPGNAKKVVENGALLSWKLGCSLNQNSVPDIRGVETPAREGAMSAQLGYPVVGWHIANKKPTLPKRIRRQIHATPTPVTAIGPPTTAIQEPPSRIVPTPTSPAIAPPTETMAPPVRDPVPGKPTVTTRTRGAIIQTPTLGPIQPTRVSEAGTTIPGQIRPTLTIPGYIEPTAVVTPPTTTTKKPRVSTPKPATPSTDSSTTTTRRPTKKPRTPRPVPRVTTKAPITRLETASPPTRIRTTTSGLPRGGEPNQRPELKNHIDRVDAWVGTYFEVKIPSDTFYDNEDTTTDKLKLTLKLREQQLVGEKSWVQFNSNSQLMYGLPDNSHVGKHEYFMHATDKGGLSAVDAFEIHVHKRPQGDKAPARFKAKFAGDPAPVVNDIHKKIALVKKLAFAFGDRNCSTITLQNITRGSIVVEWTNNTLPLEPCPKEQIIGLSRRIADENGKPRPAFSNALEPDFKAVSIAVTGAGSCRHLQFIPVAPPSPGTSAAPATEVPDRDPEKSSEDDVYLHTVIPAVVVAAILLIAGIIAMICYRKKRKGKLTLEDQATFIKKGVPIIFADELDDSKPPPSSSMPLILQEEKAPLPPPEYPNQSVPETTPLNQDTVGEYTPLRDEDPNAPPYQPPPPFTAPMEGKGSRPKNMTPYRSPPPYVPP
# Experiment: Increase of functional O-mannosylation of alpha-dystroglycan in Chinese hamster pro5 cells expressing LARGE after 48 hrs by alpha-screen assay
# Format: cell-based
row,Structure (SMILES),EC1.5 [µM]
1,CCC(c1nnnn1Cc1cccs1)N1CCN(c2nc3c(N)cccc3s2)CC1 (configuration not stated),16
2,CCC(c1nnnn1Cc1ccco1)N1CCN(c2nc3ccccc3s2)CC1 (configuration not stated),9.5
3,CCC(c1nnnn1Cc1cccs1)N1CCN(c2nc3cccc(Br)c3s2)CC1 (configuration not stated),22
4,CCC(c1nnnn1Cc1cccs1)N1CCN(c2nc3ccc(F)cc3s2)CC1 (configuration not stated),21
5,CCC(c1nnnn1Cc1cccs1)N1CCN(c2nc3cccc(O)c3s2)CC1 (configuration not stated),21
6,CCC(NCCNc1nc2cccc(F)c2s1)c1nnnn1Cc1cccs1 (configuration not stated),> 64
7,CC(C)n1nnnc1CN1CCN(c2nc3ccccc3s2)CC1,> 64
8,CCC(c1nnnn1Cc1cccs1)N1CCN(c2nc3ccccc3[nH]2)CC1 (configuration not stated),17
9,CCC(c1ccc(-c2nc3ccccc3s2)cc1)c1nnnn1Cc1cccs1 (configuration not stated),49
10,CCC(c1nnnn1Cc1nccs1)N1CCN(c2nc3cccc(F)c3s2)CC1 (configuration not stated),43
11,O=C(c1nnnn1Cc1cccs1)N1CCN(c2nc3ccccc3s2)CC1,> 64
12,CCC(c1nnnn1Cc1cccs1)N1CCN(c2nc3ccc(C(=O)O)cc3s2)CC1 (configuration not stated),19
13,CCC(c1nnnn1Cc1cccs1)N1CCN(c2nc3cc(F)ccc3s2)CC1 (configuration not stated),> 64
14,CCC(c1nnnn1Cc1cccs1)N1CCN(c2nc3cc(OC)c(OC)c(OC)c3s2)CC1 (configuration not stated),6.5
15,COc1ccc(Cn2nnnc2CN2CCN(c3nc4ccccc4s3)CC2)cc1,> 64
16,CCC(c1nnnn1Cc1cccs1)N1CCN(c2nc3cc([N+](=O)[O-])ccc3s2)CC1 (configuration not stated),> 64

row,Structure (SMILES),EC1.5 [µM]
1,CCC(c1nnnn1Cc1cccs1)N1CCN(c2nc3ccc(NC(=O)c4ccccc4C)cc3s2)CC1 (configuration not stated),> 64
2,Fc1ccc(Cn2nnnc2CN2CCN(c3nc4ccccc4s3)CC2)cc1,> 64
3,CCC(c1nnnn1Cc1cccs1)N1CCN(c2nc3ccc(N)cc3s2)CC1 (configuration not stated),11
4,c1ccc2sc(N3CCN(Cc4nnnn4C4CCCC4)CC3)nc2c1,> 64
5,CCC(c1nnnn1Cc1cccs1)N1CCN(c2nc3ccc(C)cc3s2)CC1 (configuration not stated),15
6,CCC(c1nnnn1Cc1cccs1)N1CCN(c2nc3cccc(F)c3s2)CC1 (configuration not stated),2.6
7,CCC(c1nnnn1Cc1cccs1)N1CCN(c2nc3ccc(-c4ccccc4)cc3s2)CC1 (configuration not stated),> 64
8,CCCC(c1nnnn1Cc1cccs1)N1CCN(c2nc3ccccc3s2)CC1 (configuration not stated),34
9,CC(C)CC(c1nnnn1Cc1cccs1)N1CCN(c2nc3ccccc3s2)CC1 (configuration not stated),> 64
10,CCC(c1nnnn1Cc1cccs1)N1CCN(Cc2nc3ccccc3s2)CC1 (configuration not stated),64
11,CCC(c1nnnn1Cc1cccs1)N1CCN(C2=Nc3ccccc3C2)CC1 (configuration not stated),28
12,CCC(c1nnnn1-c1ccccc1)N1CCN(c2nc3ccccc3s2)CC1 (configuration not stated),> 64
13,CCC(c1nnnn1Cc1cccs1)N1CCN(c2nc3ccc(OC)cc3s2)CC1 (configuration not stated),7.1
14,CCC(c1nnnn1Cc1cccs1)N1CCN(c2nc3cccc(C(=O)O)c3s2)CC1 (configuration not stated),22
15,CCC(c1nnnn1Cc1cccs1)N1CCN(c2nc3ccc(C(=O)OC)cc3s2)CC1 (configuration not stated),28
16,CCC(c1nnnn1Cc1cccs1)N1CCN(c2nc3ccc(NC(=O)CCCC[C@@H]4SC[C@@H]5NC(=O)N[C@@H]54)cc3s2)CC1 (some centres not stated),4.3

# Further lines, results first:
row,EC1.5 [µM],Structure (SMILES)
1,25,CCC(c1nnnn1Cc1cccs1)N1CCN(c2nc3cc([N+](=O)[O-])cc(F)c3s2)CC1 (configuration not stated)
2,13,CCC(c1nnnn1Cc1cccs1)N1CCN(c2nc3ccc(Cl)cc3s2)CC1 (configuration not stated)
3,3.4,CCC(c1nnnn1Cc1cccs1)N1CCN(c2nc3cc(N)ccc3s2)CC1 (configuration not stated)
4,9.6,CCC(c1nnnn1Cc1cccs1)N1CCC(c2nc3ccccc3s2)CC1 (configuration not stated)
5,> 64,c1ccc(C(c2nnnn2Cc2cccs2)N2CCN(c3nc4ccccc4s3)CC2)cc1 (configuration not stated)
6,> 64,CCC(c1nnnn1Cc1ccccc1)N1CCN(c2nc3ccccc3s2)CC1 (configuration not stated)
7,4.6,CCC(c1nnnn1Cc1cccs1)N1CCN(c2nc3ccccc3s2)CC1 (configuration not stated)
8,32,CCC(c1nnnn1Cc1cccs1)N1CCN(c2nc3ccc([N+](=O)[O-])cc3s2)CC1 (configuration not stated)
9,4.9,CCC(c1nnnn1Cc1cccs1)N1CCN(c2nc3c(F)cccc3s2)CC1 (configuration not stated)
10,> 64,CCC(c1nnnn1Cc1cccs1)N1CCN(c2nc3ccc(NC(=O)c4ccccc4Cl)cc3s2)CC1 (configuration not stated)
11,64,CCC(c1nnnn1CCc1cccs1)N1CCN(c2nc3cccc(F)c3s2)CC1 (configuration not stated)
12,9.5,CCC(c1nnnn1Cc1cccs1)N1CCN(c2nc3ccccc3o2)CC1 (configuration not stated)
13,25,CCC(c1nnnn1Cc1cccs1)N1CCN(c2nc3cccc(C(F)(F)F)c3s2)CC1 (configuration not stated)
14,7.2,CC(c1nnnn1Cc1cccs1)N1CCN(c2nc3ccccc3s2)CC1 (configuration not stated)
15,8.7,c1csc(Cn2nnnc2CN2CCN(c3nc4ccccc4s3)CC2)c1
16,14,CCC(c1nnnn1Cc1cccs1)N1CCN(c2nc3cccc(C(=O)OC)c3s2)CC1 (configuration not stated)
17,48,CCC(c1cnnn1Cc1cccs1)N1CCN(c2nc3ccccc3s2)CC1 (configuration not stated)
18,17,CCC(c1nnnn1Cc1cccs1)N1CCN(c2nc3c(F)cc(F)cc3s2)CC1 (configuration not stated)

# Target: T2, Dystroglycan 1 (Mus musculus) (UniProt Q62165)
# T2 sequence (whole entry): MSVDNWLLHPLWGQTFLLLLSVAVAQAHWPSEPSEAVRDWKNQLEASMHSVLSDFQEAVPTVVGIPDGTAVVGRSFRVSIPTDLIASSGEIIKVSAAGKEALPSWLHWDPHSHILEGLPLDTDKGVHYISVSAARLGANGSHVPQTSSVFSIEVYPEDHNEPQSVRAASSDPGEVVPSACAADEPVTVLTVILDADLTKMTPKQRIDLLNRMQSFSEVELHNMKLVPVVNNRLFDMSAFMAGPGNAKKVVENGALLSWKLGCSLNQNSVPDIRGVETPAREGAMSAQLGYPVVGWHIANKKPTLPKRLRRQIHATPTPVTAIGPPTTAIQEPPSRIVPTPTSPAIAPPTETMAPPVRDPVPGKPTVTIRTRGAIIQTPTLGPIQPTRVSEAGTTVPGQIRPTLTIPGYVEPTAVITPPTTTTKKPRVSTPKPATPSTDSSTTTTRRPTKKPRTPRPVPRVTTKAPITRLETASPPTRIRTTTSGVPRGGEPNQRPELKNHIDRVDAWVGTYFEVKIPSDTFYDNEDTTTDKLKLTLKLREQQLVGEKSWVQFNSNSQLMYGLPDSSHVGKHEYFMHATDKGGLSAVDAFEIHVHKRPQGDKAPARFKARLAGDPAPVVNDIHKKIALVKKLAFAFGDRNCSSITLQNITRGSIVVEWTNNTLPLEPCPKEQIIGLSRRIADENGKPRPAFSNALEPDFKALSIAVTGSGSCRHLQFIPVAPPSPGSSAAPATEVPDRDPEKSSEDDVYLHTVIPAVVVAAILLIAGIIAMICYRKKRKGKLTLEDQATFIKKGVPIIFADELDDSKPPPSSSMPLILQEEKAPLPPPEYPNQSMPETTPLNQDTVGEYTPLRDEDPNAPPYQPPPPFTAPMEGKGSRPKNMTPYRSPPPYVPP
# Experiment: Increase of functional O-mannosylation of alpha-dystroglycan in mouse C2C12 cells expressing LARGE at 10 uM after 48 hrs by alpha-screen assay relative to control
# Format: cell-based
row,Activity [%],Structure (SMILES)
1,56,CCC(c1nnnn1Cc1cccs1)N1CCN(c2nc3ccccc3s2)CC1 (configuration not stated)
2,37,c1csc(Cn2nnnc2CN2CCN(c3nc4ccccc4s3)CC2)c1
